Experimental data as given in patent US8592426B2, “Aryl-benzocycloalkyl amide derivatives” (Hoffmann—La Roche Inc., priority 2011, dated 2013).

Legend:
Bradykinin-1 receptor [1] = molecular target: T1, Bradykinin-1 receptor (Homo sapiens (Human), UniProt P46663); experiment: Receptor binding assay (B1R Binding Assay), [3H]-Kallidin (Des Arg10, Leu9) displacement; details: membranes from CHO-K1 cells overexpressing Bradykinin-1 receptor; 6 nM radioligand
Method: Binding assays were done with membranes from CHO-K1 cells overexpressing Bradykinin-1 receptor.
To determine non-specific binding 10 μM Lys-(Des-Arg^9)-Bradykinin (Bachem) was added. Membranes were harvested through GF/B (glass fiber filter; PerkinElmer) plates, equilibrated with 0.5% polyethylenimine, air dried at 50° C. for 2 h. Radioactivity was determined by counting in a topcounter (NXT Packard).

Bradykinin-1 receptor [2] = molecular target: T1, Bradykinin-1 receptor; experiment: Calcium mobilization assay (FLIPR, Fluo-4) in GeneBLAzer Bradykinin (B1)-NFAT-bla CHO-K1 cells; type: cell-based; details: antagonist activity; CHO-K1 cells stably overexpressing the human bradykinin 1 receptor; read-out: Ca mobilization Assay IC50
Method: Calcium Mobilization Assay
GeneBLAzer® Bradykinin (B1)-NFAT-bla CHO-K1 cells (from Invitrogen) stably overexpressing the human bradykinin 1 receptor were cultured in DMEM (high glucose) supplemented with 10% dialysed FBS, 1% NEAA (non essential amino acids) 1% penicillin/streptomycin, 1% G418 and 0.1 mg/ml zeocin.
For the assay cells were grown overnight in 384-well black clear flat bottom polystyrene plates (Costar) at 37° C. at 5% CO2. After washing with DMEM, 20 mM Hepes, 2.5 mM probenecid, 0.1% BSA (DMEM assay buffer) cells were loaded with 4 μM Fluo-4 in the same DMEM assay buffer for 2 hours at 30° C. Excess dye was removed and cells were washed with DMEM assay buffer. 384-well compound plates were prepared with DMEM assay buffer/0.5% DMSO with or without various concentrations of test compounds. Usually compounds were tested for agonist and antagonist activity.
Test compounds were added to the assay plate and agonist activity was monitored as fluorescence for 80 seconds with a FLIPR (488 nm excitation; 510-570 nm emission; Molecular Devices). After 20-30 min. of incubation at 30° C., 20 nM […] (R&D; Roche) was added and fluorescence was monitored again for 80 seconds. Increases in intracellular calcium are reported as maximum fluorescence after agonist exposure minus basal fluorescence before exposure.

T1 sequence (P46663 whole entry): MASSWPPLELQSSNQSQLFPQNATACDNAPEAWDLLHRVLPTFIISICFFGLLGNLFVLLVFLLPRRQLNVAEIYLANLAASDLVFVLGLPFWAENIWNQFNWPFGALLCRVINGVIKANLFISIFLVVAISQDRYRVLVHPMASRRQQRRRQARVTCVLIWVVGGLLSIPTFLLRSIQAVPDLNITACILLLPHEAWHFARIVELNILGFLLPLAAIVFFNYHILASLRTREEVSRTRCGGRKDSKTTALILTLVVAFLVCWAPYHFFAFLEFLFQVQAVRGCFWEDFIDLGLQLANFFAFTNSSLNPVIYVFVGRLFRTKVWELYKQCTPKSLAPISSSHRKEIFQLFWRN

Compound | Ki (Bradykinin-1 receptor [1]) [nM] | IC50 (Bradykinin-1 receptor [2]) [nM]
Cn1nnc(-c2c(F)cc(Cl)cc2-c2ccc3c(c2)SCC3NC(=O)C2(NC(=O)c3ccno3)CC2)n1 (racemic) [Example 64, Isoxazole-5-carboxylic acid(1-{(rac)-6-[5-chloro-3-fluoro-2-(2-methyl-2H-tetrazol-5-yl)-phenyl]-2,3-dihydro-benzo[b]thiophen-3-ylcarbamoyl}-cyclopropyl)-amide] | 7.1 | 0.5
Cc1nc(-c2c(F)cc(Cl)cc2-c2cc(F)c3c(c2)CCC3NC(=O)C2(N)CC2)no1 (racemic) [Example 32, 1-Amino-cyclopropanecarboxylic acid{(rac)-5-[5-chloro-3-fluoro-2-(5-methyl-[1,2,4]oxadiazol-3-yl)-phenyl]-7-fluoro-indan-1-yl}-amide] | 458 | 95.6
Cc1nc(-c2c(F)cc(Cl)cc2-c2ccc3c(c2)CC[C@@H]3NC(=O)C2(NC(=O)c3cncnc3)COC2)no1 [Example 50, Pyrimidine-5-carboxylic acid (3-{(S)-5-[5-chloro-3-fluoro-2-(5-methyl-[1,2,4]oxadiazol-3-yl)-phenyl]-indan-1-ylcarbamoyl}-oxetan-3-yl)-amide] | 4.8 | 0.4
Cn1nnc(-c2c(F)cc(Cl)cc2-c2ccc3c(c2)CC[C@@H]3NC(=O)C2(NC(=O)C(F)(F)F)COC2)n1 [Example 8, 3-(2,2,2-Trifluoro-acetylamino)-oxetane-3-carboxylic acid{(S)-5-[5-chloro-3-fluoro-2-(2-methyl-2H-tetrazol-5-yl)-phenyl]-indan-1-yl}-amide] | 30.3 | 24.4
Cn1nnc(-c2c(F)cc(Cl)cc2-c2ccc3c(c2)OCCC3NC(=O)C2(NC(=O)C(F)(F)F)CC2)n1 (racemic) [Example 15, 1-(2,2,2-Trifluoro-acetylamino)-cyclopropanecarboxylic acid{(rac)-7-[5-chloro-3-fluoro-2-(2-methyl-2H-tetrazol-5-yl)-phenyl]-chroman-4-yl}-amide] | 170 | 24.6
Cc1nc(-c2c(F)cc(Cl)cc2-c2ccc3c(c2)CCC3(C)NC(=O)C2(NC(=O)C(F)(F)F)CC2)no1 (racemic) [Example 17, 1-(2,2,2-Trifluoro-acetylamino)-cyclopropanecarboxylic acid{(rac)-5-[5-chloro-3-fluoro-2-(5-methyl-[1,2,4]oxadiazol-3-yl)-phenyl]-1-methyl-indan-1-yl}-amide] | 5.9 | 0.6
Cc1nc(-c2c(F)cc(Cl)cc2-c2ccc3c(c2)CCC3NC(=O)C2(NC(=O)C(F)(F)F)CC2)no1 (racemic) [Example 4, 1-(2,2,2-Trifluoro-acetylamino)-cyclopropanecarboxylic acid (rac)-{5-[5-chloro-3-fluoro-2-(5-methyl-[1,2,4]oxadiazol-3-yl)-phenyl]-indan-1-yl}-amide] | 20.2 | 2
O=C(NC1(C(=O)NC2CCc3cc(-c4cc(Cl)cc(Cl)c4OCC(F)F)ccc32)CC1)C(F)(F)F (racemic) [Example 2, 1-(2,2,2-Trifluoro-acetylamino)-cyclopropanecarboxylic acid (rac)-{5-[3,5-dichloro-2-(2,2-difluoro-ethoxy)-phenyl]-indan-1-yl}-amide] | 146 | 76.8
COc1ncc(C(=O)NC2(C(=O)NC3CCc4cc(-c5cc(Cl)cc(F)c5-c5nnn(C)n5)cnc43)CC2)cn1 (racemic) [Example 56, 2-Methoxy-pyrimidine-5-carboxylic acid(1-{(rac)-3-[5-chloro-3-fluoro-2-(2-methyl-2H-tetrazol-5-yl)-phenyl]-6,7-dihydro-5H-[1]pyrindin-7-ylcarbamoyl}-cyclopropyl)-amide] | 4.5 | 0.2
Cn1nnc(-c2c(F)cc(Cl)cc2-c2ccc3c(c2)CCC3(C)NC(=O)C2(NC(=O)C(F)(F)F)CC2)n1 (racemic) [Example 18, 1-(2,2,2-Trifluoro-acetylamino)-cyclopropanecarboxylic acid{(rac)-5-[5-chloro-3-fluoro-2-(2-methyl-2H-tetrazol-5-yl)-phenyl]-1-methyl-indan-1-yl}-amide] | 6.7 | 0.5
COc1cc(C(=O)NC2(C(=O)N[C@H]3CCc4cc(-c5cc(Cl)cc(F)c5-c5noc(C)n5)ccc43)CC2)on1 [Example 30, 3-Methoxy-isoxazole-5-carboxylic acid(1-{(S)-5-[5-chloro-3-fluoro-2-(5-methyl-[1,2,4]oxadiazol-3-yl)-phenyl]-indan-1-ylcarbamoyl}-cyclopropyl)-amide] | 3.9 | 0.1
Cc1nc(-c2c(F)cc(Cl)cc2-c2ccc3c(c2)OCC3NC(=O)C2(NC(=O)C(F)(F)F)CC2)no1 (racemic) [Example 19, 1-(2,2,2-Trifluoro-acetylamino)-cyclopropanecarboxylic acid{(rac)-6-[5-chloro-3-fluoro-2-(5-methyl-[1,2,4]oxadiazol-3-yl)-phenyl]-2,3-dihydro-benzofuran-3-yl}-amide] | 33.3 | 4.5
Cn1nnc(-c2c(F)cc(Cl)cc2-c2cnc3c(c2)CCC3NC(=O)C2(N)CC2)n1 (racemic) [Example 55, 1-Amino-cyclopropanecarboxylic acid{(rac)-3-[5-chloro-3-fluoro-2-(2-methyl-2H-tetrazol-5-yl)-phenyl]-6,7-dihydro-5H-[1]pyrindin-7-yl}-amide] | 211 | 61.1
COC(=O)c1ccccc1-c1ccc2c(c1)CCC2NC(=O)C1(NC(=O)C(F)(F)F)CC1 (racemic) [Example 1, (rac)-2-(1-{[1-(2,2,2-Trifluoro-acetylamino)-cyclopropanecarbonyl]-amino}-indan-5-yl)-benzoic acid methyl ester] | 2170 | 2250

Further lines, results first:

Ki (Bradykinin-1 receptor [1]) [nM] | IC50 (Bradykinin-1 receptor [2]) [nM] | Compound
6.3 | 0.4 | Cc1cc(C(=O)NC2(C(=O)NC3CCc4cc(-c5cc(Cl)cc(F)c5-c5nnn(C)n5)cnc43)CC2)on1 (racemic) [Example 58, 3-Methyl-isoxazole-5-carboxylic acid(1-{(rac)-3-[5-chloro-3-fluoro-2-(2-methyl-2H-tetrazol-5-yl)-phenyl]-6,7-dihydro-5H-[1]pyrindin-7-ylcarbamoyl}-cyclopropyl)-amide]
4 | 0.2 | COc1ncc(C(=O)NC2(C(=O)NC3CCc4cc(-c5cc(Cl)cc(F)c5-c5noc(C)n5)cnc43)CC2)cn1 (racemic) [Example 42, 2-Methoxy-pyrimidine-5-carboxylic acid(1-{(rac)-3-[5-chloro-3-fluoro-2-(5-methyl-[1,2,4]oxadiazol-3-yl)-phenyl]-6,7-dihydro-5H-[1]pyrindin-7-ylcarbamoyl}-cyclopropyl)-amide]
6.3 | 0.3 | Cc1nc(-c2c(F)cc(Cl)cc2-c2cnc3c(c2)CCC3NC(=O)C2(NC(=O)c3ccno3)CC2)no1 (racemic) [Example 43, Isoxazole-5-carboxylic acid(1-{(rac)-3-[5-chloro-3-fluoro-2-(5-methyl-[1,2,4]oxadiazol-3-yl)-phenyl]-6,7-dihydro-5H-[1]pyrindin-7-ylcarbamoyl}-cyclopropyl)-amide]
3 | 0.2 | COc1cc(C(=O)NC2(C(=O)NC3CCc4cc(-c5cc(Cl)cc(F)c5-c5noc(C)n5)cnc43)CC2)on1 (racemic) [Example 38, 3-Methoxy-isoxazole-5-carboxylic acid(1-{(rac)-3-[5-chloro-3-fluoro-2-(5-methyl-[1,2,4]oxadiazol-3-yl)-phenyl]-6,7-dihydro-5H-[1]pyrindin-7-ylcarbamoyl}-cyclopropyl)-amide]
591 | 301 | Cc1nc(-c2c(F)cc(Cl)cc2-c2cnc3c(c2)CCC3NC(=O)C2(N)CC2)no1 (racemic) [Example 37, 1-Amino-cyclopropanecarboxylic acid{(rac)-3-[5-chloro-3-fluoro-2-(5-methyl-[1,2,4]oxadiazol-3-yl)-phenyl]-6,7-dihydro-5H-[1]pyrindin-7-yl}-amide]
130 | 35.2 | Cc1nc(-c2c(F)cc(Cl)cc2-c2cnc3c(c2)CCC3NC(=O)C2(NC(=O)c3ccnnc3)CC2)no1 (single isomer, unassigned) [Example 40, Pyridazine-4-carboxylic acid(1-{(R or S) 3-[5-chloro-3-fluoro-2-(5-methyl-[1,2,4]oxadiazol-3-yl)-phenyl]-6,7-dihydro-5H-[1]pyrindin-7-ylcarbamoyl}-cyclopropyl)-amide]
361 | 3.6 | Cc1nc(-c2c(F)cc(Cl)cc2-c2cnc3c(c2)CCC3NC(=O)C2(NC(=O)OC(C)(C)C)CC2)no1 (racemic) [Example 36, (1-{(rac)-3-[5-Chloro-3-fluoro-2-(5-methyl-[1,2,4]oxadiazol-3-yl)-phenyl]-6,7-dihydro-5H-[1]pyrindin-7-ylcarbamoyl}-cyclopropyl)-carbamic acid tert-butyl ester]
